We go through 17 compounds from publication PMC6768041 (Chemistry Central Journal, 2018).

The target in data set [1] is T1, hMAO-A (Homo sapiens, UniProt P21397).
T1 construct: host or cells: insect cells (BTI-TN-5B14), recombinant baculovirus
T1 sequence (P21397 1-527): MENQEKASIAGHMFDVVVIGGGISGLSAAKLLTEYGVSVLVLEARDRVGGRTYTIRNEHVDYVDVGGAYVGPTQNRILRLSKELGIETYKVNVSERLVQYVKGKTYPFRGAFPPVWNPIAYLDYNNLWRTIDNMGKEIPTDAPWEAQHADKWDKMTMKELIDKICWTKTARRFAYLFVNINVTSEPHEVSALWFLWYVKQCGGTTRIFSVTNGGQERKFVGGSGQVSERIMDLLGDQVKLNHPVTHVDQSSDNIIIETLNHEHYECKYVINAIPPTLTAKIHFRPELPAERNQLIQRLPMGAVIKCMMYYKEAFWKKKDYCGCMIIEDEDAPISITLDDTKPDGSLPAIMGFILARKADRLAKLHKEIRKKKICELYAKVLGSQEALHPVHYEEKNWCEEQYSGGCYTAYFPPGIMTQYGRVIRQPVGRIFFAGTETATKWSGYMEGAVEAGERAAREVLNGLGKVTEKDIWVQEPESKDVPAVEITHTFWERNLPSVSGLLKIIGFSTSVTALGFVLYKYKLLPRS
As to the kind of experiment: hMAO-A inhibition, Amplex Red fluorometric assay.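 For all read-outs here: recombinant human MAO-A and MAO-B from baculovirus-infected insect cell microsomes, H2O2 formation detected fluorometrically via Amplex Red with horseradish peroxidase, background from enzyme-free wells subtracted, distilled water negative control.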 To be noted: for Selectivity index: IC50 (MAO-A)/IC50 (MAO-B); for IC50: recombinant hMAO-A, p-tyramine substrate, mean SEM. The format is biochemical.
Text: (§1) The biological hMAO activity evaluation of the test drugs was examined by quantifying their action on the generation of H2O2 by p-tyramine (general substrate for hMAO-B and hMAO-A), utilizing the Amplex Red MAO assay kit (Sigma USA) and MAO isoforms (microsomal) obtained from insect cells (BTI-TN-5B14) expressed as recombinant baculovirus consisting cDNA probes for hMAO-A or hMAO-B. Reactions were monitored by thin layer chromatography TLC executed over silica gel precoated plates (0.25 mm) purchased from Merck, envisioned of single spots was carried in iodine and UV chambers, in mobile media TLC- Benzene:Chloroform (7:3).
(§2) All synthesized compounds were evaluated for their capability to inhibit the MAO-A and MAO-B isoforms of human MAO by a fluorometric method. The MAO inhibitory property of the test compounds was examined with the recombinant human enzymes using an Amplex Red Monoamine Oxidase Assay Kit (Sigma USA). The incessant peroxidase-linked photometric assay was performed on the fluorometer. […] Distilled water was used as a negative control. In brief, 0.1 mL of sodium phosphate buffer (0.05 M, pH 7.4) with the test new compounds/reference inhibitors in different concentrations and sufficient quantity of recombinant hMAO-A or hMAO-B requisite and in step to complete our investigational protocol with the equal reaction velocity, (hMAO-A: 1.1 mg protein; explicit activity: 150 nmol of p-tyramine oxidized to p-hydroxyphenylacetaldehyde/min/mg protein; hMAO-B: 7.5 mg protein; explicit activity: 22 nmol of p-tyramine changed/min/mg protein) were incubated for 15 min at 37 °C, placed in the dark fluorometric compartment. After incubation, the effect was attained through the addition of 200 mM Amplex Red reagent (final concentrations), 1 mM p-tyramine, and 1 U/mL horseradish peroxidase. Finally, the generation of hydrogen peroxide and, subsequently, of resorufin was measured at 37 °C in fluorescence reader (λemission, 585 nm, λexcitation, 530 nm) after 15 min, by the time fluorescence amplified linearly. All the control experiments were performed concurrently by changing the reference inhibitors and test compounds with suitable dilutions in the solvents. Moreover, the activity of abovementioned evaluated compounds to alter the fluorescence produced in the combination reaction by (e.g. for reacting with Amplex Red reagent directly) non-enzymatic inhibition was identified by addition of these compounds to solutions having just the Amplex Red reagent in a sodium phosphate buffer. […] The fluorescence reading was computed by subtraction of the background activity and was evaluated from wells with all components not including the hMAO isoforms that was substituted by a sodium phosphate buffer solution. All data was processed in Microsoft Excel, to calculate IC50 values.

In the next data set the target is T2, hMAO-B (Homo sapiens, UniProt P27338).
T2 construct: host or cells: insect cells (BTI-TN-5B14), recombinant baculovirus
T2 sequence (P27338 1-520): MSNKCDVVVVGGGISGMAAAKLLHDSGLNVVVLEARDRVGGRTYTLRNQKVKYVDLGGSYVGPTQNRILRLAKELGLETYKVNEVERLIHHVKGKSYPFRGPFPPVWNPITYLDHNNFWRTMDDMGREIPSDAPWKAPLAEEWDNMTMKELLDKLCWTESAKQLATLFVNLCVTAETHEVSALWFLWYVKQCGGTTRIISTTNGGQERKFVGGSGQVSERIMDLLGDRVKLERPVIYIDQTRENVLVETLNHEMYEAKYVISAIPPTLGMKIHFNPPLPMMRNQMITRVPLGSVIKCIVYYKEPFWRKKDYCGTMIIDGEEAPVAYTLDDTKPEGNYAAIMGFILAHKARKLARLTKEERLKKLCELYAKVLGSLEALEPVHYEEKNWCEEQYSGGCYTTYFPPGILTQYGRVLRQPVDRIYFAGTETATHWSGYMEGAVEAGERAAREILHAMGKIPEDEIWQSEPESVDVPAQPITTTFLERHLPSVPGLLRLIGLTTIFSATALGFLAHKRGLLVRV
Nature of the data set: hMAO-B inhibition, Amplex Red fluorometric assay. The format is biochemical. To be noted: recombinant hMAO-B, p-tyramine substrate; mean SEM.

A short description of data set [2]: DPPH radical scavenging assay. To be noted: mean ± SEM, n = 3. The method, then: DPPH (2,2-diphenyl-1-picryl-hydrazyl-hydrate) free radical process is an antioxidant assay based on electron-transfer that turns violet color in ethanol. The antioxidant activity was based on free radical scavenging effect towards stable DPPH• radical upon spectrophotometric reaction according to the method reported in the literature. Briefly, solutions of synthesized compounds were prepared in fifty milliliters of various concentrations (25, 50, 75, and 100) µg/mL dissolved in methanol, was added to 5 mL of a 0.004% methanol solution of DPPH. The stock solution was prepared with 0.01% DPPH• in ethanol/water (1:1). While sample solutions were prepared as 5 mL DPPH• solution was mixed with 5 mL ascorbic acid solution then shaken vigorously and kept in the dark at 37 °C. The samples were incubated at the 37 °C temperature for 30 min in the dark chamber subsequently, absorbance was measured. The marketable recognized antioxidant, ascorbic acid was utilized for contrast or as a positive control. Initially, the blank spectrum for ethanol/water was recorded subsequently the spectrophotometric titration was carried out with various concentrations of synthesized compounds. The absorbance was recorded at 517 nm with UV/Vis Epoch ELISA reader, and antioxidant activity was measured as a decrease in absorbance of DPPH•. The IC50 values of free radical DPPH, based on control reading were calculated by the following equation. %inhibition of DPPH radical=Abr-Aar/Abr×100 where Abr is the absorbance prior to reaction and Aar is the absorbance after reaction with DPPH•.
For orientation: The DPPH test is a chemical assay of radical scavenging.

Data set [3] is described as follows: Hydrogen peroxide scavenging (H2O2) assay. To be noted: mean ± SEM, n = 3; read-out: H2O2 radical scavenging IC50. As to the method:
Amongst the reactive oxygen species (ROS), H2O2 is an essential radical as even though it is not lethal of its own accord, but can be changed to further even highly toxic radicals, for instance, OH^• by hypochlorous acid or Fenton reaction by the oxidases enzymes. A solution of H2O2 (40 µM) was added in phosphate buffer saline ([…] pH 7.4). Different quantities of test and references compounds in DMSO were added to 2 mL of hydrogen peroxide solution in buffer solution. Subsequently, upon to 10 min, the absorbance was calculated at 230 nm against a blank solution including phosphate buffer without H2O2 [31]. The percentage of scavenging H2O2 was estimated by the formula in this way: %ScavengingH2O2=AS-AT/Ai×100 where AS is the absorbance of control and AT is the absorbance of the test.

A further data set relates to MAO-A. To be noted: cited from earlier work.
Another data set concerns monoamine oxidase-B. To be noted: cited from earlier work.
The next data set concerns rMAO-B. To be noted: cited from earlier work.
Data set [4] deals with T1, hMAO-A. To be noted: cited from earlier work.
For another data set, the system named is rMAO-A. To be noted: cited from earlier work.

The structures appear in SMILES notation.

Text for hMAO-B: as §1, §2

Compound `O=C(O)/C=C/c1ccc(O)c(O)c1` [Caffeic acid, reference compound] displayed a Selectivity index at hMAO-A [1] of 0.512. Besides, the IC50 on hMAO-A [1] is 11.72 ± 0.044 µM; at hMAO-B it was 22.88 ± 0.009 µM; in data set [2], 9.679 ± 0.013 µM; in data set [3] it was 8.868 ± 0.011 µM; in the data set on MAO-A it was greater than 1000 µM. Further, the “Inhibition of MAO-A activity” value in the data set with MAO-A is given as “up to 40.4%”. For the same compound, the “Monoamine oxidase-B inhibition in words” value with monoamine oxidase-B is reported as “did not produce significant monoamine oxidase-B inhibition”.

On to `O=C(/C=C/c1ccc(O)c(O)c1)Nc1ccc([N+](=O)[O-])cc1Cl` [Compound 1, (E)-N-(2-chloro-4-nitrophenyl)-3-(3,4-dihydroxyphenyl)acrylamide], for which the melting point fell in the range of 230 to 231 °C. For the same compound, on hMAO-A [1], the Selectivity index came to 0.209 and the IC50 stood at 8.87 ± 0.005 µM. In addition, at hMAO-B, the IC50 came to 42.34 ± 0.077 µM. In [2], this compound displayed an IC50 of 6.39 ± 0.007 µM. For the same compound, the IC50 in [3] is 6.292 ± 0.007 µM.

With `O=C(/C=C/c1ccc(O)c(O)c1)Nc1ccc(Cl)cc1[N+](=O)[O-]` [Compound 2, (E)-N-(4-chloro-2-nitrophenyl)-3-(3,4-dihydroxyphenyl)acrylamide], the melting point was in the range of 200 to 202 °C. At hMAO-A [1], the Selectivity index is 0.191 and the IC50 worked out at 8.51 ± 0.017 µM. Further, on hMAO-B, the IC50 amounted to 44.42 ± 0.014 µM. Also, in [2], the IC50 was 8.09 ± 0.042 µM. The half-maximal inhibitory concentration (IC50) in [3] was 8.544 ± 0.015 µM.

`O=C(/C=C/c1ccc(O)c(O)c1)Nc1ccc(Br)cc1` [Compound 3, (E)-N-(4-bromophenyl)-3-(3,4-dihydroxyphenyl)acrylamide] showed a Selectivity index at hMAO-A [1] of 0.838. In addition, the IC50 was found to be 17.72 ± 0.006 µM on hMAO-A [1], 21.14 ± 0.025 µM on hMAO-B, 13.56 ± 0.003 µM in [2] and 12.56 ± 0.021 µM in data set [3].

With `O=C(/C=C/c1ccc(O)c(O)c1)Nc1cccc(F)c1` [Compound 4, (E)-3-(3,4-dihydroxyphenyl)-N-(3-fluorophenyl)acrylamide], on hMAO-A [1], the Selectivity index amounted to 0.319. Further, the IC50 at hMAO-A [1] turned out to be 18.47 ± 0.007 µM; on hMAO-B, 57.88 ± 0.029 µM; in data set [2] it was 9.19 ± 0.001 µM; in data set [3], 9.486 ± 0.017 µM.

Compound `COc1cc(C=O)ccc1OC(=O)/C=C/c1ccc(O)c(O)c1` [Compound 6, (E)-4-formyl-2-methoxyphenyl 3-(3,4-dihydroxyphenyl)acrylate] gave a melting point of 150 to 151 °C. Moreover, on hMAO-A [1], the Selectivity index turned out to be 1.252 and the IC50 stood at 20.36 ± 0.002 µM. Also, the “MAO isoform selectivity in words” value at hMAO-A [1] (hMAO-A vs hMAO-B) was “selective for hMAO-B”. For the same compound, the IC50 at hMAO-B is 16.25 ± 0.035 µM. Inhibition in data set [2] was half-maximal at 11.34 ± 0.001 µM (IC50). For the same compound, the IC50 in [3] turned out to be 21.69 ± 0.034 µM.

On to `Cc1ccc(C(C)C)cc1OC(=O)/C=C/c1ccc(O)c(O)c1` [Compound 8, (E)-5-isopropyl-2-methylphenyl 3-(3,4-dihydroxyphenyl)acrylate], for which the melting point lay within 182 to 182.6 °C. Besides, at hMAO-A [1], the Selectivity index is 0.724 and the IC50 was 19.75 ± 0.066 µM. For the same compound, the IC50 on hMAO-B is 27.26 ± 0.072 µM. In data set [2], the IC50 worked out at 11.94 ± 0.025 µM. Besides, the IC50 in data set [3] was determined as 11.88 ± 0.008 µM.

For the compound `O=C(/C=C/c1ccc(O)c(O)c1)Oc1cccc(O)c1` [Compound 9, (E)-3-hydroxyphenyl 3-(3,4-dihydroxyphenyl)acrylate], the melting point was in the range of 198 to 198.4 °C. Besides, at hMAO-A [1], the Selectivity index amounted to 0.379 and the IC50 stood at 10.33 ± 0.012 µM. Also, the IC50 on hMAO-B stood at 27.25 ± 0.004 µM. The compound further came in with an IC50 in data set [2] of 10.57 ± 0.004 µM. The IC50 in data set [3] is 9.907 ± 0.014 µM.

The compound `CCNC(=O)/C=C/c1ccc(O)c(O)c1` [Compound 10, (E)-3-(3,4-dihydroxyphenyl)-N-ethylacrylamide] displayed a Selectivity index at hMAO-A [1] of 1.947. Besides, the IC50 amounted to 25.22 ± 0.015 µM at hMAO-A [1], 12.95 ± 0.046 µM on hMAO-B, 11.34 ± 0.078 µM in data set [2] and 11.39 ± 0.042 µM in [3].

With `O=C(/C=C/c1ccc(O)c(O)c1)Oc1ccc2ccccc2c1` [Compound 11, (E)-naphthalen-2-yl 3-(3,4-dihydroxyphenyl)acrylate], the melting point is 176 to 176.9 °C. On hMAO-A [1], the Selectivity index is 1.233 and the IC50 came to 24.34 ± 0.011 µM. In addition, on hMAO-B, the IC50 was found to be 21.48 ± 0.056 µM. In data set [2], this compound gave an IC50 of 12.95 ± 0.031 µM. Moreover, the IC50 in [3] was 11.34 ± 0.045 µM.

On hMAO-A [1], `CC1CCC(C(C)C)C(OC(=O)/C=C/c2ccc(O)c(O)c2)C1` (stereo not shown) [Compound 12, (E)-2-isopropyl-5-methylcyclohexyl 3-(3,4-dihydroxyphenyl)acrylate] yielded a Selectivity index of 0.453. Moreover, the IC50 on hMAO-A [1] was determined as 22.02 ± 0.018 µM; at hMAO-B it was 48.54 ± 0.077 µM; in data set [2] it was 15.37 ± 0.054 µM; in [3], 14.65 ± 0.026 µM.

Take `O=c1oc2c(O)c(O)cc3c(=O)oc4c(O)c(O)cc1c4c23` [Ellagic acid]: in the data set with rMAO-B, the “MAO inhibition value rMAO-B” value is 412.24 nM rMAO-B.

For `O=C(O)c1cc(O)c(O)c(O)c1` [Gallic acid], the “MAO inhibition value hMAO-A” value at hMAO-A [4] is given as 9.49 ± 0.83 hMAO-A µM.

As for `O=C1O[C@H]([C@@H](O)CO)C(O)=C1O` [L-Ascorbic acid, reference compound], the IC50 in data set [3] is 8.12 ± 0.082 µM.

Regarding `O=C(O)c1ccc(O)c(O)c1` [Protocatechuic acid], the “MAO inhibition value rMAO-A” value with rMAO-A is 300 µM. In the data set on rMAO-B, the “MAO inhibition value rMAO-B” value is 2411 µM.

Regarding `O=C(O)/C=C/c1ccccc1` [Trans-Cinnamic acid], the “MAO inhibition value rMAO-A” value with rMAO-A is 6.47 ± 0.73 µM. Besides, the “MAO inhibition value rMAO-B” value with rMAO-B is reported as 1.21 ± 0.071 µM.

Take `O=C(/C=C/c1ccc(O)c(O)c1)O[C@H](Cc1ccc(O)c(O)c1)C(=O)O` [rosmarinic acid]: in the data set on monoamine oxidase-B, the “Monoamine oxidase-B inhibition in words” value is reported as “did not produce significant monoamine oxidase-B inhibition”.

The IC50 is the concentration that inhibits the measured activity by half. Broadly, the melting point is the temperature of the solid-liquid transition.
